Laboratory results: PubChem BioAssay (NCI)
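Exposure lasted 48 hours, with cells grown in 96-well plates and compounds tested at five concentrations. Definition used: TGI = concentration required for complete inhibition of growth.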

How the values were obtained:
Assay in all cases: NCI tumour cell line growth inhibition, 48 h
SNB-78 CNS = test system: SNB-78 CNS
A498 renal = test system: A498 renal
RXF-631 renal = test system: RXF-631 renal
K-562 leukemia = test system: K-562 leukemia
UO-31 renal = test system: UO-31 renal
HOP-18 NSCLC = test system: HOP-18 NSCLC
SK-MEL-28 melanoma = test system: SK-MEL-28 melanoma
SW-620 colon = test system: SW-620 colon
SF-295 CNS = test system: SF-295 CNS
UACC-62 melanoma = test system: UACC-62 melanoma
SF-539 CNS = test system: SF-539 CNS
786-0 renal = test system: 786-0 renal
HOP-92 NSCLC = test system: HOP-92 NSCLC
DMS 273 small cell lung = test system: DMS 273 small cell lung
HCT-15 colon = test system: HCT-15 colon
LOX IMVI melanoma = test system: LOX IMVI melanoma
LXFL 529 NSCLC = test system: LXFL 529 NSCLC
MALME-3M melanoma = test system: MALME-3M melanoma
M14 melanoma = test system: M14 melanoma
CCRF-CEM leukemia = test system: CCRF-CEM leukemia
ACHN renal = test system: ACHN renal
HT29 colon = test system: HT29 colon
OVCAR-3 ovarian = test system: OVCAR-3 ovarian
A549 NSCLC = test system: A549 NSCLC
OVCAR-4 ovarian = test system: OVCAR-4 ovarian
UACC-257 melanoma = test system: UACC-257 melanoma
HL-60(TB) leukemia = test system: HL-60(TB) leukemia
DLD-1 colon = test system: DLD-1 colon
SNB-19 CNS = test system: SNB-19 CNS
SK-MEL-2 melanoma = test system: SK-MEL-2 melanoma
SN12C renal = test system: SN12C renal
SR leukemia = test system: SR leukemia
OVCAR-5 ovarian = test system: OVCAR-5 ovarian
TK-10 renal = test system: TK-10 renal
U251 CNS = test system: U251 CNS
CAKI-1 renal = test system: CAKI-1 renal
HCC-2998 colon = test system: HCC-2998 colon
KM20L2 colon = test system: KM20L2 colon
HCT-116 colon = test system: HCT-116 colon
M19-MEL melanoma = test system: M19-MEL melanoma
NCI-H460 lung = test system: NCI-H460 lung
XF 498 CNS = test system: XF 498 CNS
RXF 393 renal = test system: RXF 393 renal
OVCAR-8 ovarian = test system: OVCAR-8 ovarian
KM12 colon = test system: KM12 colon
SK-MEL-5 melanoma = test system: SK-MEL-5 melanoma
SNB-75 CNS = test system: SNB-75 CNS
RPMI-8226 leukemia = test system: RPMI-8226 leukemia
DMS 114 small cell lung = test system: DMS 114 small cell lung
EKVX NSCLC = test system: EKVX NSCLC
NCI-H23 lung = test system: NCI-H23 lung
MOLT-4 leukemia = test system: MOLT-4 leukemia
NCI-H226 lung = test system: NCI-H226 lung
NCI-H522 lung = test system: NCI-H522 lung
SK-OV-3 ovarian = test system: SK-OV-3 ovarian
HOP-62 NSCLC = test system: HOP-62 NSCLC
SF-268 CNS = test system: SF-268 CNS
COLO 205 colon = test system: COLO 205 colon
IGROV1 ovarian = test system: IGROV1 ovarian

With `[Cl-].[Fe+2].c1ccc(-c2ccnc3c2ccc2c(-c4ccccc4)ccnc23)cc1.c1ccc(-c2ccnc3c2ccc2c(-c4ccccc4)ccnc23)cc1.c1ccc(-c2ccnc3c2ccc2c(-c4ccccc4)ccnc23)cc1` the TGI (SNB-78 CNS) was over 100 µM, the TGI (A498 renal) was 0.39 µM and the TGI (RXF-631 renal) was over 100 µM. For the same molecule, the TGI (K-562 leukemia) was 0.139 µM.

In the case of `c1ccc(-c2nnc3nn4c(-c5ccccc5)cnnc4c3c2-c2ccccc2)cc1`, the TGI (UO-31 renal) is reported as 75.1 µM, the TGI (HOP-18 NSCLC) is reported as over 100 µM and the TGI (SK-MEL-28 melanoma) is reported as over 100 µM. It also gave a TGI (SW-620 colon) of over 100 µM, a TGI (SF-295 CNS) of over 100 µM and a TGI (UACC-62 melanoma) of over 100 µM. It also gave a TGI (SNB-78 CNS) of over 100 µM, a TGI (SF-539 CNS) of 99.5 µM and a TGI (786-0 renal) of 25.8 µM. The TGI (A498 renal) was over 100 µM, the TGI (HOP-92 NSCLC) was over 100 µM and the TGI (DMS 273 small cell lung) was over 100 µM. The TGI (HCT-15 colon) was over 100 µM, the TGI (LOX IMVI melanoma) was over 100 µM and the TGI (LXFL 529 NSCLC) was over 100 µM. The TGI (MALME-3M melanoma) was over 100 µM, the TGI (M14 melanoma) was over 100 µM and the TGI (CCRF-CEM leukemia) was over 100 µM. It also gave a TGI (ACHN renal) of over 100 µM, a TGI (HT29 colon) of over 100 µM and a TGI (OVCAR-3 ovarian) of over 100 µM. For the same molecule, the TGI (A549 NSCLC) was over 100 µM, the TGI (OVCAR-4 ovarian) was 42.5 µM and the TGI (UACC-257 melanoma) was over 100 µM. The TGI (HL-60(TB) leukemia) was over 100 µM, the TGI (DLD-1 colon) was over 100 µM and the TGI (SNB-19 CNS) was 61.2 µM. It also gave a TGI (SK-MEL-2 melanoma) of over 100 µM, a TGI (SN12C renal) of over 100 µM and a TGI (SR leukemia) of over 100 µM. It also gave a TGI (OVCAR-5 ovarian) of over 100 µM, a TGI (TK-10 renal) of 83.1 µM and a TGI (U251 CNS) of over 100 µM. For the same molecule, the TGI (CAKI-1 renal) was 45.6 µM, the TGI (HCC-2998 colon) was over 100 µM and the TGI (KM20L2 colon) was over 100 µM. The TGI (RXF-631 renal) was 66.7 µM, the TGI (HCT-116 colon) was over 100 µM and the TGI (M19-MEL melanoma) was over 100 µM. For the same molecule, the TGI (NCI-H460 lung) was over 100 µM, the TGI (XF 498 CNS) was 57.1 µM and the TGI (RXF 393 renal) was 46.3 µM. It also gave a TGI (OVCAR-8 ovarian) of over 100 µM, a TGI (KM12 colon) of over 100 µM and a TGI (SK-MEL-5 melanoma) of over 100 µM. It also gave a TGI (SNB-75 CNS) of 83.9 µM, a TGI (K-562 leukemia) of over 100 µM and a TGI (RPMI-8226 leukemia) of over 100 µM. For the same molecule, the TGI (DMS 114 small cell lung) was over 100 µM, the TGI (EKVX NSCLC) was 70.9 µM and the TGI (NCI-H23 lung) was over 100 µM. For the same molecule, the TGI (MOLT-4 leukemia) was over 100 µM and the TGI (NCI-H226 lung) was over 100 µM.

For `CC(C)[Si](OCC1CC(C#N)OC(C)(C)O1)(C(C)C)C(C)C` (stereo unspecified), the TGI (UO-31 renal) was 40.9 µM, the TGI (HOP-18 NSCLC) was over 100 µM and the TGI (SK-MEL-28 melanoma) was over 100 µM. It also gave a TGI (NCI-H522 lung) of 43.5 µM, a TGI (SW-620 colon) of 36 µM and a TGI (SF-295 CNS) of 29.3 µM. For the same molecule, the TGI (UACC-62 melanoma) was over 100 µM, the TGI (SNB-78 CNS) was 52.1 µM and the TGI (SF-539 CNS) was 79 µM. For the same molecule, the TGI (786-0 renal) was 35.2 µM, the TGI (A498 renal) was 19.1 µM and the TGI (HOP-92 NSCLC) was 57.2 µM. It also gave a TGI (DMS 273 small cell lung) of 35.8 µM, a TGI (HCT-15 colon) of 79 µM and a TGI (LOX IMVI melanoma) of 33.7 µM. It also gave a TGI (MALME-3M melanoma) of 57.6 µM, a TGI (M14 melanoma) of 48.4 µM and a TGI (CCRF-CEM leukemia) of 39.1 µM. For the same molecule, the TGI (ACHN renal) was 29.4 µM, the TGI (HT29 colon) was 37.5 µM and the TGI (OVCAR-3 ovarian) was 29.4 µM. It also gave a TGI (A549 NSCLC) of over 100 µM, a TGI (OVCAR-4 ovarian) of over 100 µM and a TGI (SK-OV-3 ovarian) of 73.4 µM. For the same molecule, the TGI (UACC-257 melanoma) was 42.7 µM, the TGI (HL-60(TB) leukemia) was 29.3 µM and the TGI (DLD-1 colon) was over 100 µM. It also gave a TGI (SNB-19 CNS) of 50.8 µM, a TGI (SK-MEL-2 melanoma) of 30.6 µM and a TGI (SN12C renal) of over 100 µM. For the same molecule, the TGI (SR leukemia) was 41.5 µM, the TGI (OVCAR-5 ovarian) was over 100 µM and the TGI (TK-10 renal) was over 100 µM. For the same molecule, the TGI (U251 CNS) was 30 µM, the TGI (CAKI-1 renal) was 69.5 µM and the TGI (HOP-62 NSCLC) was 44.3 µM. It also gave a TGI (HCC-2998 colon) of 38.4 µM, a TGI (KM20L2 colon) of 65.8 µM and a TGI (HCT-116 colon) of 30.1 µM. It also gave a TGI (M19-MEL melanoma) of 76.9 µM, a TGI (NCI-H460 lung) of 30.8 µM and a TGI (XF 498 CNS) of 37 µM. For the same molecule, the TGI (SF-268 CNS) was 82.7 µM, the TGI (RXF 393 renal) was 31.9 µM and the TGI (OVCAR-8 ovarian) was 48 µM. For the same molecule, the TGI (KM12 colon) was 35.9 µM, the TGI (COLO 205 colon) was 31.7 µM and the TGI (IGROV1 ovarian) was over 100 µM. It also gave a TGI (SK-MEL-5 melanoma) of 33 µM, a TGI (SNB-75 CNS) of over 100 µM and a TGI (K-562 leukemia) of 37.9 µM. For the same molecule, the TGI (RPMI-8226 leukemia) was 33.8 µM, the TGI (EKVX NSCLC) was 66 µM and the TGI (NCI-H23 lung) was 65.8 µM. It also gave a TGI (MOLT-4 leukemia) of 41.1 µM and a TGI (NCI-H226 lung) of 35 µM.

`C#CCOCn1cnc2ncnc(N)c21` showed a TGI (UO-31 renal) of over 100 µM, a TGI (HOP-18 NSCLC) of over 100 µM and a TGI (SK-MEL-28 melanoma) of over 100 µM. It also gave a TGI (NCI-H522 lung) of over 100 µM, a TGI (SW-620 colon) of over 100 µM and a TGI (SF-295 CNS) of over 100 µM. It also gave a TGI (UACC-62 melanoma) of over 100 µM, a TGI (SNB-78 CNS) of over 100 µM and a TGI (SF-539 CNS) of over 100 µM. It also gave a TGI (786-0 renal) of over 100 µM, a TGI (A498 renal) of over 100 µM and a TGI (HOP-92 NSCLC) of over 100 µM. The TGI (DMS 273 small cell lung) was over 100 µM, the TGI (LOX IMVI melanoma) was over 100 µM and the TGI (MALME-3M melanoma) was over 100 µM. For the same molecule, the TGI (CCRF-CEM leukemia) was over 100 µM, the TGI (ACHN renal) was over 100 µM and the TGI (HT29 colon) was over 100 µM. The TGI (OVCAR-3 ovarian) was over 100 µM, the TGI (A549 NSCLC) was over 100 µM and the TGI (OVCAR-4 ovarian) was over 100 µM. For the same molecule, the TGI (SK-OV-3 ovarian) was over 100 µM, the TGI (UACC-257 melanoma) was over 100 µM and the TGI (DLD-1 colon) was over 100 µM. The TGI (SNB-19 CNS) was over 100 µM, the TGI (SK-MEL-2 melanoma) was over 100 µM and the TGI (SN12C renal) was over 100 µM. For the same molecule, the TGI (SR leukemia) was over 100 µM, the TGI (OVCAR-5 ovarian) was over 100 µM and the TGI (TK-10 renal) was over 100 µM. For the same molecule, the TGI (U251 CNS) was over 100 µM, the TGI (CAKI-1 renal) was over 100 µM and the TGI (HOP-62 NSCLC) was over 100 µM. For the same molecule, the TGI (HCC-2998 colon) was over 100 µM, the TGI (HCT-116 colon) was over 100 µM and the TGI (M19-MEL melanoma) was over 100 µM. The TGI (NCI-H460 lung) was over 100 µM, the TGI (XF 498 CNS) was over 100 µM and the TGI (SF-268 CNS) was over 100 µM. The TGI (RXF 393 renal) was over 100 µM, the TGI (OVCAR-8 ovarian) was over 100 µM and the TGI (KM12 colon) was over 100 µM. For the same molecule, the TGI (COLO 205 colon) was over 100 µM, the TGI (IGROV1 ovarian) was over 100 µM and the TGI (SK-MEL-5 melanoma) was over 100 µM. For the same molecule, the TGI (SNB-75 CNS) was over 100 µM, the TGI (K-562 leukemia) was over 100 µM and the TGI (RPMI-8226 leukemia) was over 100 µM. It also gave a TGI (DMS 114 small cell lung) of over 100 µM, a TGI (EKVX NSCLC) of over 100 µM and a TGI (NCI-H23 lung) of over 100 µM. The TGI (MOLT-4 leukemia) was over 100 µM and the TGI (NCI-H226 lung) was over 100 µM.
